Assay [1] has as its system eIF2α in HEK293-EGFP-eIF2α cells. Kind of assay: PERK Cellular Assay (HEK293-EGFP-eIF2α cells, tunicamycin-induced ER stress, TR-FRET). The format is cell-based. As to conditions: tunicamycin 2 hours. A digest of the protocol:
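Cells pre-incubated with inhibitor 30 min at 37 °C, then ER stress induced with […] tunicamycin for 2 h. TR-FRET read on lysates; ratio normalized to DMSO control as percent inhibition over a 10-point, 3-fold dilution series; IC50 from 4-parameter logistic fit.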
In general terms: TR-FRET usually uses a lanthanide donor and a delayed reading to cut background.

Assay [2] addresses Recombinant human EIF2AK3 (PERK) catalytic domain (amino acids 536-1116) (Homo sapiens (Human), UniProt Q9NZJ5). Kind of assay: PERK In Vitro Activity Assay (isolated), TR-FRET kinase assay. As to conditions: isolated PERK enzyme, 1.5 μM ATP, read-out: Biochemical IC50. A digest of the protocol:
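Recombinant PERK catalytic domain was incubated with 100–200 nM GFP-eIF2a substrate in 50 mM HEPES pH 7.5, 10 mM MgCl2, 1.0 mM EGTA and 0.01% Brij-35 for 45 min at room temperature. After a 10 mM EDTA stop, 2 nM Tb-anti-phospho-eIF2a was added for 90 min, and IC50 was fitted from TR-FRET ratios by 4-parameter logistic regression.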

Each structure is given as a SMILES string.

24 molecules from patent US12331054B2, “Perk inhibiting imidazolopyrazine compounds” (HiberCell, Inc., priority 2019, dated 2025) can be followed below.

Usually IC50 stands for the concentration at which inhibition is half-maximal.

Chain of Recombinant human EIF2AK3 (PERK) catalytic domain (amino acids 536-1116) (Q9NZJ5 536-1116): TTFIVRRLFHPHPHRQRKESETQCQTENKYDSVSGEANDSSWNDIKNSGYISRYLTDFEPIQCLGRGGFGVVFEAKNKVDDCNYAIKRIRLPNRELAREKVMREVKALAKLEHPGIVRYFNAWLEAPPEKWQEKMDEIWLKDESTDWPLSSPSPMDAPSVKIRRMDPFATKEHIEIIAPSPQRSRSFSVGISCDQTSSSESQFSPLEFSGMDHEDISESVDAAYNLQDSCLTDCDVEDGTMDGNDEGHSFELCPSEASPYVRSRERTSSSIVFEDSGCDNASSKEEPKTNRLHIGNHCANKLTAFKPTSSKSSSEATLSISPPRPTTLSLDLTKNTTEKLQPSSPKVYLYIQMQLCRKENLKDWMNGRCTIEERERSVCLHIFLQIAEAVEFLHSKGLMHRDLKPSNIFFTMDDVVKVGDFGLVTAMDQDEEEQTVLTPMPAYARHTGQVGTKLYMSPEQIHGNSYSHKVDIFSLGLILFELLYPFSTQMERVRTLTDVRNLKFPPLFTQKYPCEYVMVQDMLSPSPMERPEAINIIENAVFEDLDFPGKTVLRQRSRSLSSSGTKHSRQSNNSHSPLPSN

Consider `[2H]C([2H])([2H])c1nc(-c2ccc(NC(=O)C(O)c3cc(F)cc(C(F)(F)F)c3)cc2C)c2c(N)ncc(Cl)n12` (stereo not drawn) [Example 57, N-[4-[8-amino-5-chloro-3-(trideuteriomethyl)imidazo[1,5-a]pyrazin-1-yl]-3-methyl-phenyl]-2-[3-fluoro-5-(trifluoromethyl)phenyl]-2-hydroxy-acetamide], for which the IC50 in assay [1] fell in the range of 26 to 50 nM; in assay [2], 1 to 25 nM.
Consider `[2H]C([2H])([2H])c1nc(-c2ccc(NC(=O)C(O)c3cc(F)cc(F)c3)cc2F)c2c(N)ncc(C(F)(F)F)n12` (stereo not drawn) [Example 107, N-[4-[8-amino-3-(trideuteriomethyl)-5-(trifluoromethyl)imidazo[1,5-a]pyrazin-1-yl]-3-fluoro-phenyl]-2-(3,5-difluoro-phenyl)-2-hydroxy-acetamide], for which the IC50 was 26 to 50 nM in assay [1] and 1 to 25 nM in assay [2].
For `[2H]C([2H])([2H])c1nc(-c2ccc(NC(=O)C(O)c3cccc(Cl)c3)cc2C)c2c(N)ncc(C)n12` (stereo not drawn) [Example 37, N-[4-[8-amino-5-methyl-3-(trideuteriomethyl)imidazo[1,5-a]pyrazin-1-yl]-3-methyl-phenyl]-2-(3-chlorophenyl)-2-hydroxy-acetamide], the IC50 was in the range of 51 to 100 nM in assay [1] and 1 to 25 nM in assay [2].
In the case of `[2H]C([2H])([2H])c1nc(-c2ccc(NC(=O)C(O)c3cc(F)cc(F)c3)c(F)c2F)c2c(N)ncc(C(F)(F)F)n12` (stereo not drawn) [Example 158, N-[4-[8-amino-3-(trideuteriomethyl)-5-(trifluoromethyl)imidazo[1,5-a]pyrazin-1-yl]-2,3-difluoro-phenyl]-2-(3,5-difluorophenyl)-2-hydroxy-acetamide], the IC50 in assay [1] and in assay [2] was 1 to 25 nM in each case.
For the molecule `[2H]C([2H])([2H])c1nc(-c2ccc(NC(=O)C(O)c3cccc(C(F)(F)F)c3)nc2C)c2c(N)ncc(C)n12` (stereo not drawn) [Example 175, N-[5-[8-amino-5-methyl-3-(trideuteriomethyl)imidazo[1,5-a]pyrazin-1-yl]-6-methyl-2-pyridyl]-2-hydroxy-2-[3-(trifluoromethyl)phenyl]acetamide], the 50% inhibitory concentration (IC50) in assay [1] lay within 101 to 250 nM; in assay [2], 1 to 25 nM.
`Cc1cc(NC(=O)C(O)c2cccc(F)c2)ccc1-c1nc(C)n2c(C(F)(F)F)cnc(N)c12` (stereo not drawn) [Example 26, N-(4-(8-amino-3-methyl-5-(trifluoromethyl)imidazo[1,5-a]pyrazin-1-yl)-3-methylphenyl)-2-(3-fluorophenyl)-2-hydroxyacetamide]: the IC50 lay in the range of 26 to 50 nM in assay [1] and 1 to 25 nM in assay [2].
As for `[2H]C([2H])([2H])c1nc(-c2ccc(NC(=O)C(O)c3cccc(F)c3)c(F)c2F)c2c(N)ncc(Cl)n12` (stereo not drawn) [Example 136, N-[4-[8-amino-5-chloro-3-(trideuteriomethyl)imidazo[1,5-a]pyrazin-1-yl]-2,3-difluoro-phenyl]-2-(3-fluoro-phenyl)-2-hydroxy-acetamide], the IC50 in assay [1] and in assay [2] was 1 to 25 nM throughout.
As to `Cc1cnc(N)c2c(-c3ccc(NC(=O)C(O)c4cccc(F)c4)c(F)c3)nc(C)n12` (stereo not drawn) [Example 124, N-(4-(8-amino-3,5-dimethyl-imidazo[1,5-a]pyrazin-1-yl)-2-fluorophenyl)-2-(3-fluorophenyl)-2-hydroxy-acetamide], the IC50 is 501 to 1000 nM in assay [1] and 26 to 50 nM in assay [2].
Take `Cc1c(-c2nc(C)n3c(C)cnc(N)c23)ccc(NC(=O)C(O)c2cccc(F)c2)c1F` (stereo not drawn) [Example 168, N-(4-(8-amino-3,5-dimethyl-imidazo[1,5-a]pyrazin-1-yl)-2-fluoro-3-methyl-phenyl)-2-(3-fluorophenyl)-2-hydroxy-acetamide]: the IC50 in assay [1] was 251 to 500 nM; in assay [2] it was 1 to 25 nM.
With `[2H]C([2H])([2H])c1nc(-c2ccc(NC(=O)C(O)c3cccc(F)c3)c(F)c2F)c2c(N)ncc(C(F)(F)F)n12` (stereo not drawn) [Example 134, N-[4-[8-amino-3-(trideuteriomethyl)-5-(trifluoromethyl)imidazo[1,5-a]pyrazin-1-yl]-2,3-difluoro-phenyl]-2-(3-fluorophenyl)-2-hydroxy-acetamide], the IC50 in assay [1] and in assay [2] was 1 to 25 nM in each case.
Consider `[2H]C([2H])([2H])c1nc(-c2ccc(NC(=O)C(O)c3cccc(Cl)c3)cc2C)c2c(N)nc(C)cn12` (stereo not drawn) [Example 35, N-[4-[8-amino-6-methyl-3-(trideuteriomethyl)imidazo[1,5-a]pyrazin-1-yl]-3-methyl-phenyl]-2-(3-chlorophenyl)-2-hydroxy-acetamide], for which the IC50 is 1000 to 2000 nM in assay [1] and 101 to 250 nM in assay [2].
For the molecule `[2H]C([2H])([2H])c1nc(-c2ccc(NC(=O)C(O)c3cccc(F)c3)c(F)c2)c2c(N)ncc(C)n12` (stereo not drawn) [Example 123, N-[4-[8-amino-5-methyl-3-(trideuteriomethyl)imidazo[1,5-a]pyrazin-1-yl]-2-fluoro-phenyl]-2-(3-fluorophenyl)-2-hydroxy-acetamide], the IC50 in assay [1] and in assay [2] was 1 to 25 nM each time.
As for `[2H]C([2H])([2H])c1nc(-c2ccc(NC(=O)C(O)c3cccc(F)c3)cc2F)c2c(N)ncc(C(F)(F)F)n12` (stereo not drawn) [Example 77, N-[4-[8-amino-3-(trideuteriomethyl)-5-(trifluoromethyl)imidazo[1,5-a]pyrazin-1-yl]-3-fluoro-phenyl]-2-(3-fluorophenyl)-2-hydroxy-acetamide], the IC50 lay in the range of 51 to 100 nM in assay [1] and 1 to 25 nM in assay [2].
As for `Cc1c(-c2nc(C)n3c(C)cnc(N)c23)ccc(NC(=O)C(O)c2cccc(F)c2)c1F` (stereo not drawn) [Example 169, N-(4-(8-amino-3,5-dimethyl-imidazo[1,5-a]pyrazin-1-yl)-2-fluoro-3-methyl-phenyl)-2-(3-fluorophenyl)-2-hydroxy-acetamide], the IC50 in assay [1] and in assay [2] was 1 to 25 nM throughout.
Turning to `Cc1cn2c(C)nc(-c3ccc(NC(=O)C(O)c4cccc(F)c4)c(F)c3F)c2c(N)n1` (stereo not drawn) [Example 128, N-(4-(8-amino-3,6-dimethyl-imidazo[1,5-a]pyrazin-1-yl)-2,3-difluoro-phenyl)-2-(3-fluorophenyl)-2-hydroxyacetamide], the IC50 in assay [1] and in assay [2] was 1 to 25 nM throughout.
Take `Cc1cc(NC(=O)C(O)c2cccc(F)c2)ccc1-c1nc(C)n2c(C)cnc(N)c12` (stereo not drawn) [Example 8, N-(4-(8-amino-3,5-dimethylimidazo[1,5-a]pyrazin-1-yl)-3-methylphenyl)-2-(3-fluorophenyl)-2-hydroxyacetamide]: the IC50 was in the range of 26 to 50 nM in assay [1] and 1 to 25 nM in assay [2].
Take `[2H]C([2H])([2H])c1nc(-c2ccc(NC(=O)C(O)c3cccc(F)c3)cc2C)c2c(N)nc(C)cn12` (stereo not drawn) [Example 5, N-(4-(8-amino-6-methyl-3-(trideuteriomethyl)imidazo[1,5-a]pyrazin-1-yl)-3-methylphenyl)-2-(3-fluorophenyl)-2-hydroxyacetamide]: the IC50 in assay [1] (2 h) and in assay [2] was 1 to 25 nM each time.
For the molecule `[2H]C([2H])([2H])c1nc(-c2ccc(NC(=O)C(O)c3cccc(Cl)c3)cc2F)c2c(N)ncc(C)n12` (stereo not drawn) [Example 85, N-[4-[8-amino-5-methyl-3-(trideuteriomethyl)imidazo[1,5-a]pyrazin-1-yl]-3-fluoro-phenyl]-2-(3-chlorophenyl)-2-hydroxy-acetamide], the IC50 is 51 to 100 nM in assay [1] and 1 to 25 nM in assay [2].
With `[2H]C([2H])([2H])c1nc(-c2ccc(NC(=O)C(O)c3cccc(F)c3)cc2F)c2c(N)ncc(Cl)n12` (stereo not drawn) [Example 75, N-[4-[8-amino-5-chloro-3-(trideuteriomethyl)imidazo[1,5-a]pyrazin-1-yl]-3-fluoro-phenyl]-2-(3-fluorophenyl)-2-hydroxy-acetamide], the values for the IC50 in assay [1] and in assay [2] were 26 to 50 nM and 1 to 25 nM, respectively.
As to `[2H]C([2H])([2H])c1nc(-c2ccc(NC(=O)C(O)c3cccc(Cl)c3)c(F)c2F)c2c(N)nc(C)cn12` (stereo not drawn) [Example 141, N-[4-[8-amino-6-methyl-3-(trideuteriomethyl)imidazo[1,5-a]pyrazin-1-yl]-2,3-difluoro-phenyl]-2-(3-chlorophenyl)-2-hydroxy-acetamide], the IC50 is 501 to 1000 nM in assay [1] and 51 to 100 nM in assay [2].
For `[2H]C([2H])([2H])c1nc(-c2ccc(NC(=O)C(O)c3cccc(F)c3)c(F)c2)c2c(N)ncc(C)n12` (stereo not drawn) [Example 122, N-[4-[8-amino-5-methyl-3-(trideuteriomethyl)imidazo[1,5-a]pyrazin-1-yl]-2-fluoro-phenyl]-2-(3-fluorophenyl)-2-hydroxy-acetamide], the IC50 is 251 to 500 nM in assay [1] and 26 to 50 nM in assay [2].
For `Cc1cc(NC(=O)C(O)c2cccc(F)c2)c(F)cc1-c1nc(C)n2c(C)cnc(N)c12` (stereo not drawn) [Example 65, N-(4-(8-amino-3,5-dimethylimidazo [1,5-a]pyrazin-1-yl)-2-fluoro-5-methylphenyl)-2-(3-fluorophenyl)-2-hydroxy-acetamide], the IC50 in assay [1] and in assay [2] was 1 to 25 nM each time.
For the molecule `[2H]C([2H])([2H])c1nc(-c2ccc(NC(=O)C(O)c3cccc(C(F)(F)F)c3)cc2F)c2c(N)ncc(C(F)(F)F)n12` (stereo not drawn) [Example 98, N-[4-[8-amino-3-(trideuteriomethyl)-5-(trifluoromethyl)imidazo[1,5-a]pyrazin-1-yl]-3-fluoro-phenyl]-2-hydroxy-2-[3-(trifluoromethyl)phenyl]acetamide], the results for the concentration for half-maximal inhibition (IC50) in assay [1] and in assay [2] were 26 to 50 nM and 1 to 25 nM, respectively.
Turning to `Cc1cnc(N)c2c(-c3ccc(NC(=O)C(O)c4cccc(C(F)(F)F)c4)cc3F)nc(C)n12` (stereo not drawn) [Example 92, N-(4-(8-amino-3,5-dimethylimidazo [1,5-a]pyrazin-1-yl)-3-fluoro-phenyl)-2-hydroxy-2-(3-(trifluoromethyl)phenyl)acetamide], the IC50 in assay [1] and in assay [2] was 1 to 25 nM throughout.
